From US20230414637A1 (priority 2020, published 2023)
≈ marks a conversion by molar mass, not a printed value. Where “and” joins values, the source holds several entries; their conditions need not be identical. Equal values may be shown once. Read-outs that look alike come from different tables or passages of the source.

Key:
[1] = format: physicochemical; conditions: data and pHp theory
From the text: pH=pKa+Log10[Nic−ve]/[NicOH] Eqn 1
pHp=pKa+log(S−So)/So Eqn 4
So=the molar intrinsic solubility of the undissociated acid (NicOH), and S=the molar concentration of the salt form initially added.

[2] = physchem; conditions: 20 °C, pH 9.5, aqueous buffer, kinetic from dmso stock
[3] = system: SARS-COV-2 syncytia; conditions: Braga et al [18]; cited from earlier work
[4] = in vitro; conditions: human
[5] = cited from earlier work
[6] = [11]; cited from earlier work
[7] = system: Vero E6 cells; conditions: cited from earlier work
[8] = physchem
Method: The pKa is defined as the negative base-10 logarithm of the acid dissociation constant (Ka) of a solution). It is an important parameter to consider here because pKa and pH are equal when half of the acid has dissociated. […] Once the pKa is measured (or estimated) the well-known Henderson-Hasselbalch equation calculates the fractions of each species.

[9] = Supersaturated solution precipitation of niclosamide: amount in solution; conditions: pH 9.5, 3 mM/200 μM
[10] = system: human airway epithelial cells; assay: cells; conditions: Epithelial cell, read-out: IC50 for cell viability and ATP
[11] = system: human airway epithelial cells; conditions: 300 uM
[12] = physchem; remark: listed apart in the source
[13] = system: SARS-CoV-2 in Calu-3 cells; conditions: cited from earlier work
[14] = system: SARS-CoV-2 in Huh-7 cells; conditions: infected liver Huh-7 cells, Mirabelli et al [60]; cited from earlier work
[15] = Equilibrium dissolution of AK Sci niclosamide versus pH (supernatant concentration by UV/Vis at 333 nm)
[16] = system: SARS-CoV-2 in Vero 6 cells; conditions: cited from earlier work

In the case of O=C(Nc1ccc([N+](=O)[O-])cc1Cl)c1cc(Cl)ccc1O [Niclosamide, 5-Chloro-N-(2-chloro-4-nitrophenyl)-2-hydroxybenzamide], the “pH at which a 30 uM niclosamide solution can be made” value [1] is reported as 8.16, the “pH at which a 50 uM niclosamide solution can be made” value [1] is reported as 8.39 and the “pH at which a 200 uM niclosamide solution can be made” value [1] is reported as 9.01 and 8.92. The “pH at which a 300 uM niclosamide solution can be made” value [1] was 9.19 and 9.10, the “pH at which a 20 uM niclosamide solution can be made” value ([1]; pKa 7.12, So 2.53 uM) was 7.96 and 7.98 and the solubility kinetic [2] was 3000 µM (≈ 981 µg/mL). For the same compound, the “effect on syncytia in vitro” value [3] was “protected against syncytia in vitro”, the viability at 300 uM [4] was 30% and the solubility ([5]; pH 6.4) was 1.6 µg/mL (≈ 4.89 µM). For the same compound, the solubility ([5]; pH 9.1) was 110 µg/mL (≈ 336 µM), the acute oral toxicity [6] was over 1000 mg/kg and the CC50 [7] was 205000 nM. The “concentration to which host cell viability extended” value [7] was over 100 µM, the pKa [8] was 6.52 and the supersaturation [9] was about 15 times. For the same compound, the IC50 [10] was 20000 to 30000 nM, the “airway epithelial cells still alive upon washout” value [11] was 17% and the cell death ([11]; 6 hr) was 83%. The “factor of increase of fitted logarithmic dissolution rate” value (over pH range 8.62 to 9.44, nominal 0.5 mM-1 mM) was “over 3 ×”, the “fitted logarithmic dissolution rate, factor of ln(x)” value (pH 9.44 buffer, more optimized (standardized) stirring) was 94 and the solubility ([12]; pH 6.4, aqueous buffer) was 4.89 µM (≈ 1.6 µg/mL). For the same compound, the solubility ([12]; pH 9.1, aqueous buffer) was 336 µM (≈ 110 µg/mL), the “IC100 for inhibiting viral replication (estimated from graph)” value ([13]; Calu-3 cells, Ko et al [34]) was 2 to 3 µM and the IC50 ([13]; Calu-3 cells, Ko et al [34], read-out: IC50 for viral replication) was 840 nM. For the same compound, the “effect on viral replication” value ([13]; respiratory Calu-3 cells, 2.5 uM, Braga et al [18]) was “showed inhibition of viral replication”, the IC50 [14] was 140 nM and the “amount of niclosamide in solution” value ([15]; pH 6-7 (tap water, saliva)) was about 2 µM. For the same compound, the “conversion of added powder at high pH” value ([15]; pH 9.7, 10.0 and 10.45 carbonate-bicarbonate buffer, 1 hr stirring) was “converted to red crystalline micro-crystals”, the IC50 ([16]; Vero 6 cells, Braga et al [18], read-out: IC50 for viral replication) was 340 nM and the “concentration to completely prevent viral replication” value ([16]; Vero 6 cells, Brunaugh et al [91], including purported enhancement by lysozyme) was 0.4 µM. The “IC100, complete inhibition of viral replication” value ([16]; Vero 6 cells, Jeon et al [14]) was 1 µM, the IC50 ([16]; Vero 6 cells, Jeon et al [14], read-out: IC50 for viral replication) was 280 nM and the IC50 ([16]; Vero E6 cells, Mostafa et al [29], read-out: IC50 for inhibiting viral replication) was 160 nM.
